Structures can show the parent of a compound that is named as a salt.
How the values were obtained:
[1] = Antihypertensive activity, spontaneous hypertensive rat, indirect tail cuff method; type: in vivo; conditions: three days, measured on third day
Procedure: The spiro[benzofuran-2(3H),1'-cycloheptane]s of formula I of the present invention are useful as antihypertensive agents due to their ability to depress blood pressure in mammals. Antihypertensive activity is measured in the spontaneous hypertensive rat by the indirect tail cuff method described in "Methods in Pharmacology", A. Schwartz, Ed., Vol. I, Appleton-Century Crofts, New York, N. Y., 1971, p. 135. In this procedure a group of five animals are treated orally for three days with the test compound in relation to a control group of the same number. The drop in blood pressure is measured on the third day following administration. The antihypertensive activities of some of the compounds, expressed as a decrease in mean arterial blood pressure (in mm Hg), are given in Table I.

[2] = Anticonvulsant activity, supramaximal electroshock assay (SES); type: in vivo, mice; conditions: Mus musculus, ip
Procedure: Compounds I of the present invention are useful as anticonvulsant agents. […] Groups of male mice (18-30 grams) are used. Drugs are prepared using distilled water and if insoluble, a surfactant is added. Control animals receive vehicle. Drugs are routinely administered intraperitoneally. The dosage volume is 10 ml/kg.
The animal's eyes are placed across the output terminals of an A.C. shocker that delivers 206 volts rms for 300 milliseconds. Electrode paste coats the animal's eyes at the point of contact with the terminals.
Protection is expressed as normalized percent inhibition relative to vehicle control. [formula]
A time response is carried out using 6 animals per group. Animals are tested at 30, 60 and 120 minutes postdrug. Additional time periods are tested if indicated by previous tests.
When the peak activity time has been determined, a dose response is initiated, using 10 animals per group at that time period. The ED50 and 95% confidence interval are calculated by computerized probit analysis.

[3] = Analgesic activity, 2-phenyl-1,4-benzoquinone-induced writhing test; type: in vivo, mice
From the text: Compounds I of the present invention are useful as analgesic agents due to their ability to alleviate pain in mammals. […] Exptl. Biol. Med., 95, 729 (1957)].

[4] = Inhibition of tetrabenazine-induced ptosis (antidepressant activity); type: in vivo, mice; conditions: Mus musculus, ip, 0.5 h; i.p.; tetrabenazine 40 mg/kg i.p. 30 minutes after
Procedure: Compounds I of the present invention are useful as antidepressant agents due to their ability to prevent tetrabenazine induced ptosis in mice. The method used is as follows.
Male mice weighing 20 to 30 grams are used in test groups of five subjects. All compounds are dissolved, or suspended with one drop of a non-ionic surfactant in distilled water and administered in volumes of 10 ml/kg of body weight. Tetrabenazine (TBZ) solution is made from methanesulfonate salt and the concentration is adjusted to enable the administration of 40 mg/kg of base by intraperitoneal injection (i.p.).
If the test compound is administered intraperitoneally, TBZ is injected 30 minutes after administration. If the test compound is administered orally (p.o.), TBZ is injected 60 minutes after the administration. A control group received solvent and TBZ by the same route and at the same intervals as the drug groups.
Thirty and sixty minutes after TBZ injection the subjects are placed in individual plastic containers (10/1/2"×8"×6") and one minute after transfer they are scored for ptosis on the followig scale: eyes closed=4, eyes 3/4 closed=3, eyes 1/2 closed=2, eyes 1/4 closed=1, and eyes open=0. The total score for each group of five will therefore be from 0 to 20 and these scores are used as indications of drug activity.
The vehicle-control group score is used as a determinate of the validity of each test. […]

SMILES: CN(C)CCC=C1c2ccccc2OC12CCCCCC2
- Blood Pressure Drop ([1]; 50 mg/kg p.o.): 32 mm Hg

SMILES: CN(C)CCCC1c2ccccc2OC12CCCCCC2 (stereo not shown) [3-(3-Dimethylaminopropyl)-spiro[benzofuran-2(3H),1'-cycloheptane]hydrochloride]
- ED50 [2]: 30.6 mg/kg

SMILES: CN(C)CCCC1c2cc(Cl)ccc2OC12CCCCCC2.Cl (stereo not shown) [5-Chloro-3-(3-dimethylaminopropyl)-spiro[benzofuran-2(3H),1'-cycloheptane] hydrochloride]
- % Inhibition at 20 mg/kg, s.c. [3]: 40%

SMILES: CN(C)CCO/N=C1/c2ccccc2OC12CCCCCC2 [(Z)-O-Dimethylaminoethyl-spiro[benzofuran-2(3H),1'-cycloheptan]-3-one oxime maleate]
- ED50 [2]: 30.2 mg/kg
- ED50 [4]: 72.5 mg/kg

SMILES: CC(C)NCC(O)CO/N=C1/c2ccccc2OC12CCCCCC2 (stereo not shown) [(Z)-O-[3-[(1-Methylethyl)amino]-2-hydroxypropyl]spiro[benzofuran-2(3H),1'-cycloheptan]-3-one oxime maleate]
- % Inhibition at 20 mg/kg, s.c. [3]: 40%

SMILES: CNC1=Nc2ccc(Cl)cc2C(c2ccccc2)=[N+]([O-])C1 [Chlordiazepoxide, reference compound]
- ED50 [2]: 8 mg/kg

SMILES: CN(CCCC1c2ccccc2OC12CCCCCC2)CCc1ccccc1.O=C(O)/C=C/C(=O)O (stereo not shown) [N-Methyl-N-(2-phenylethyl)-spiro[benzofuran-2(3H),1'-cycloheptane]-3-propanamine fumarate]
- Blood Pressure Drop ([1]; 50 mg/kg p.o.): 76 mm Hg

SMILES: CN(CCCC1c2ccccc2OC12CCCCCC2)Cc1ccccc1 (stereo not shown) [N-Methyl-N-[3-[spiro[benzofuran-2(3H),1'-cyclohept-3-yl]]propyl]benzenemethanamine maleate]
- % Inhibition at 20 mg/kg, s.c. [3]: 54%

SMILES: CN(CCCC(c1ccc(F)cc1)c1ccc(F)cc1)CCCC1c2ccccc2OC12CCCCCC2 (stereo not shown) [N-[4-[Bis(4-fluorophenyl)]-butyl]-N-methyl-spiro[benzofuran-2(3H),1'-cycloheptane]-3-propanamine fumarate]
- Blood Pressure Drop ([1]; 30 mg/kg p.o.): 61 mm Hg
- % Inhibition at 20 mg/kg, s.c. [3]: 70%

SMILES: CCC(=O)O[C@](Cc1ccccc1)(c1ccccc1)[C@H](C)CN(C)C [Propoxyphene, reference compound]
- ED50 ([3]; Mus musculus, sc): 3.9 mg/kg

SMILES: C[C@](N)(Cc1ccc(O)c(O)c1)C(=O)O [alpha-Methyldopa, reference compound]
- Blood Pressure Drop ([1]; 50 mg/kg p.o.): 40 mm Hg

Source: patent US4623657A, “Spiro [benzofuran-2(3H),1'-cycloheptane]s and their therapeutic use” (Hoechst-Roussel Pharmaceuticals Inc., priority 1985, dated 1986)
